# Legend:
# Botrytis cinerea [1] = assay: Dose response, vapor-coated clamshells; strawberries (Example 3); type: in vivo; conditions: Inoculated Fruit, sublimation
# Procedure: Five milligrams of Compound A was dissolved in 1 ml of ethanol prior to being uniformly administered to the interior of the clamshell by painting or spraying, and then dried for 5 minutes. After coating the clamshells with Compound A using various application techniques (i.e., sublimation, spraying, or painting), eight ethanol-washed strawberries were placed in the clamshell with stem end facing downwards. Each strawberry fruit was wounded using a T15 screwdriver tip to a uniform depth of eight mm (8 mm). […] Uninoculated strawberries were removed from their commercial package, and directly transferred into treated clamshells without any washing or inoculation steps.
# Treated clamshells lids were closed, and then placed at 1° C. for an initial time period of 5 days. Clamshells were then removed from low temperature, and held for a second time period of 6 days at room temperature where the point of inoculation on the strawberry fruits was assessed for indication of disease incidence reported as a percentage (%). Severity of disease incidence was also reported.
# This in vivo assay was used to evaluate the ability of vaporized Compound A to volatilize from a clamshell in order to control or inhibit pathogenic microorganisms. This experiment was conducted exactly as described in Example 1, with a few exceptions. After equilibrating the clamshell overnight at 21° C., Compound A was administered to the clamshell as a vapor only. In addition, Compound A was vapor-coated onto the surface of the clamshell at a final treatment rate of 3.16 mg/clamshell, 1 mg/clamshell, or 0.316 mg/clamshell. After vapor-coating application, Compound A headspace was permitted to equilibrate overnight at 21° C. Strawberries were inoculated with Botrytis cinerea, placed within the clamshells for an initial time period, and assessed for disease incidence and severity over a second time period as described in Example 1.
# Alternaria alternata = assay: Volatile MIC assay (Example 9); type: cell-based; conditions: 72 h, headspace concentration, 3 days at 23 C, read-out: MIC (mg/L) ALTEAL
# Procedure: (§1) A 3-mL volume of full-strength Potato Dextrose Agar (PDA) is added to each well. […] Plates are inoculated immediately prior to volatile fungicide treatment. A Whatman #1 filter disk (Cat. No. 1001-0155) is placed, in duplicate, on the underside of a polyethylene PCR plate sealing film. […] The acetone is permitted to evaporate for 5 minutes. The headspace around the inoculum is then sealed inside the well by the film with the adhering disk containing the fungicide by inverting the plates over the treated disks and sealing to prevent any of the chemical from flaking from the disk and falling onto the inoculated agar.
# Botrytis cinerea [2] = assay: Volatile MIC assay (Example 9); type: cell-based; conditions: 72 h, headspace concentration, 3 days at 23 C, read-out: MIC (mg/L) BOTRCI
# Procedure: as §1
# Glomerella cingulata = assay: Volatile MIC assay (Example 9); type: cell-based; conditions: Colletotrichum gloeosporioides, 72 h, headspace concentration, 3 days at 23 C, read-out: MIC (mg/L) GLOMCI
# Procedure: as §1
# Monilinia fructicola = assay: Volatile MIC assay (Example 9); type: cell-based; conditions: 72 h, headspace concentration, 3 days at 23 C, read-out: MIC (mg/L) MONIFC
# Procedure: as §1
# Penicillium expansum [3] = assay: Volatile MIC assay (Example 9); type: cell-based; conditions: 72 h, headspace concentration, 3 days at 23 C, read-out: MIC (mg/L) PENIEX
# Procedure: as §1
# Penicillium expansum [4] = assay: Blue mold on apple, volatile assay; type: in vivo
# Procedure: Compound A is mixed with acetone and 250 μL of the mixture is pipetted into a small glass tube. […] After incubation, fruits are evaluated by measuring the diameter (mm) of rot development (browning) up to 7 days at 21° C.
# Epidermophyton floccus = assay: In vitro contact assay (Example 26); type: cell-based; conditions: Epidermophyton, 120 h, 5 days at 28 C, 100% control, read-out: MIC (mg/L) Epidermophyton floccus
# Procedure: (§2) Half-strength Potato Dextrose Agar (PDA) is amended with a mixture of one of the test compounds in acetone or methanol to a final concentration of 50, 10, 2, 0.4 or 0.08 mg/L. A 3-mL volume of the amended media is added to each well of the microtiter plate. […] The plates are sealed with a clear film and incubated inverted for 5 days at 28° C.
# [5] = test system: Trichophyton mentagrophytes; assay: In vitro contact assay (Example 26); type: cell-based; conditions: Trichophyton mentagrophytes, 120 h, 5 days at 28 C, 100% control, read-out: MIC (mg/L) Trichophyton mentagrophytes
# Procedure: as §2
# Trichophyton rubrum = assay: In vitro contact assay (Example 26); type: cell-based; conditions: Trichophyton rubrum, 120 h, 5 days at 28 C, 100% control, read-out: MIC (mg/L) Trichophyton rubrum
# Procedure: as §2
# Penicillium expansum [6] = assay: Blue mold on apple and pear, volatile assay (Example 25); conditions: 50 mg/L, day 3 at 21 C after 5 days at 1 C
# Procedure: Two apples, pears or oranges are placed in a clamshell, and three fresh wounds are made near the equatorial region of each fruit. Each fruit wound is then inoculated with 20 μL of 1×10^6 spores per mL of Penicillium expansum or digitatum suspension, respectively. The inoculum is allowed to dry for two hours prior to treatment application as a volatile or contact.
# Volatile Assay: Clamshells are then placed at the bottom of a 2.55-L SnapWare airtight container (Model #109842). […] The solutions are pipetted into Whatman filter disks mounted to the inside lid of the container. The chambers are then incubated at 1° C. for 5 days, removed to 21° C., and evaluated on day 3 by determining the diameter (mm) of rot development (browning) or sporulation.
compound,measurement,setting,value
"OB1OCc2cc(F)ccc21 [Compound A, 5-fluoro-1,3-dihydro-1-hydroxy-2,1-benzoxaborole]",Gray Mold Severity (0-4),"Botrytis cinerea [1]; 0.316 mg per clamshell, Day 1",0.4
same,Gray Mold Severity (0-4),"Botrytis cinerea [1]; 0.316 mg per clamshell, Day 2",1.3
same,Gray Mold Severity (0-4),"Botrytis cinerea [1]; 0.316 mg per clamshell, Day 3",2.2
same,Gray Mold Severity (0-4),"Botrytis cinerea [1]; 0.316 mg per clamshell, Day 4",3.4
same,Gray Mold Severity (0-4),"Botrytis cinerea [1]; 0.316 mg per clamshell, Day 5",3.8
same,Gray Mold Severity (0-4),"Botrytis cinerea [1]; 0.316 mg per clamshell, Day 6",3.9
same,Gray Mold Severity (0-4),"Botrytis cinerea [1]; 1.00 mg per clamshell, Day 1",0.0
same,Gray Mold Severity (0-4),"Botrytis cinerea [1]; 1.00 mg per clamshell, Day 2",0.0
same,Gray Mold Severity (0-4),"Botrytis cinerea [1]; 1.00 mg per clamshell, Day 3",0.0
same,Gray Mold Severity (0-4),"Botrytis cinerea [1]; 1.00 mg per clamshell, Day 4",0.1
same,Gray Mold Severity (0-4),"Botrytis cinerea [1]; 1.00 mg per clamshell, Day 5",0.4
same,Gray Mold Severity (0-4),"Botrytis cinerea [1]; 1.00 mg per clamshell, Day 6",0.7
same,Gray Mold Severity (0-4),"Botrytis cinerea [1]; 3.16 mg per clamshell, Day 1",0.0
same,Gray Mold Severity (0-4),"Botrytis cinerea [1]; 3.16 mg per clamshell, Day 2",0.0
same,Gray Mold Severity (0-4),"Botrytis cinerea [1]; 3.16 mg per clamshell, Day 3",0.0
same,Gray Mold Severity (0-4),"Botrytis cinerea [1]; 3.16 mg per clamshell, Day 4",0.0
same,Gray Mold Severity (0-4),"Botrytis cinerea [1]; 3.16 mg per clamshell, Day 5",0.1
same,Gray Mold Severity (0-4),"Botrytis cinerea [1]; 3.16 mg per clamshell, Day 6",0.2
same,MIC,Alternaria alternata,< 0.6 mg/L
same,MIC,Botrytis cinerea [2],2.2 mg/L
same,MIC,Glomerella cingulata,< 0.6 mg/L
same,MIC,Monilinia fructicola,< 0.6 mg/L
same,MIC,Penicillium expansum [3],2.2 mg/L
same,Browning Rot (diameter; mm),"Penicillium expansum [4]; 0.02 mg/L, Day 0",0.0 mm
same,Browning Rot (diameter; mm),"Penicillium expansum [4]; 0.02 mg/L, Day 2",0.9 mm
same,Browning Rot (diameter; mm),"Penicillium expansum [4]; 0.02 mg/L, Day 4",2.8 mm
same,Browning Rot (diameter; mm),"Penicillium expansum [4]; 0.02 mg/L, Day 7",6.9 mm
same,Browning Rot (diameter; mm),"Penicillium expansum [4]; 0.1 mg/L, Day 0",0.0 mm
same,Browning Rot (diameter; mm),"Penicillium expansum [4]; 0.1 mg/L, Day 2",0.0 mm
same,Browning Rot (diameter; mm),"Penicillium expansum [4]; 0.1 mg/L, Day 4",0.3 mm
same,Browning Rot (diameter; mm),"Penicillium expansum [4]; 0.1 mg/L, Day 7",2.0 mm
same,Browning Rot (diameter; mm),"Penicillium expansum [4]; 0.5 mg/L, Day 0",0.0 mm
same,Browning Rot (diameter; mm),"Penicillium expansum [4]; 0.5 mg/L, Day 2",0.0 mm
same,Browning Rot (diameter; mm),"Penicillium expansum [4]; 0.5 mg/L, Day 4",0.0 mm
same,Browning Rot (diameter; mm),"Penicillium expansum [4]; 0.5 mg/L, Day 7",0.4 mm
same,Browning Rot (diameter; mm),"Penicillium expansum [4]; 2.5 mg/L, Day 0",0.0 mm
same,Browning Rot (diameter; mm),"Penicillium expansum [4]; 2.5 mg/L, Day 2",0.0 mm
same,Browning Rot (diameter; mm),"Penicillium expansum [4]; 2.5 mg/L, Day 4",0.0 mm
same,Browning Rot (diameter; mm),"Penicillium expansum [4]; 2.5 mg/L, Day 7",0.0 mm
same,MIC,Epidermophyton floccus,2 mg/L
same,MIC,[5],2 mg/L
same,MIC,Trichophyton rubrum,2 mg/L
same,Apple Browning (mm),Penicillium expansum [6],0.4 mm
same,Apple Sporulation (mm),Penicillium expansum [6],0.0 mm
same,Pear Browning (mm),Penicillium expansum [6],5.7 mm
same,Pear Sporulation (mm),Penicillium expansum [6],0.0 mm

# Source: patent US12329158B2, “Large-scale methods of uniformly coating packaging surfaces with a volatile antimicrobial to preserve food freshness” (AGROFRESH INC., priority 2013, dated 2025)
